{"source": "patent US8337809B2", "about": "“Charge-assembled capsules for phototherapy” (William Marsh Rice University, priority 2006, dated 2012)", "key": {"[1]": {"assay": "ICG leakage measurements / thermal degradation in PBS", "format": "physicochemical", "conditions": "37° C.", "experimental": "The synthesis of ICG-NACs with ICG/PAH=0.04 was scaled up by 10 times. After washing with PBS solution, the precipitate was dispersed in PBS solution (2.6 mL) and split into 0.25 mL aliquots kept under constant shaking in the dark at either 23 or 37° C. Because of the long time scale of this study and the sensitivity of ICG to degradation in water, the suspension fluid was not analyzed for released ICG. Instead, the ICG contained within the ICG-NACs was quantified by inducing the disassembly of the ICG-NACs and immediately measuring the ICG concentration. Specifically, after a given aging time, each aliquot was centrifuged for 30 min and the concentrated precipitate suspension ([…]) was combined with 2.5 mL HNO3 solution (2 wt %). The resulting clear solution was then analyzed through UV-vis spectroscopy. As control samples, fresh ICG solution in PBS was prepared with a concentration close to that of the disassembled NAC solution (˜0.04 mg/mL) and incubated at 23 and 37° C. The samples were kept in the dark during aging.\nThe ICG content of ICG-NACs (ICG/amine ratio=0.04) was quantified as a function of time by dis-assembling the capsules and measuring the absorbance of free ICG concentration at 780 nm (FIG. 9). For ICG-NACs at 23° C., more than 96% of ICG was retained. […]"}, "[2]": {"assay": "Laser-induced photothermal experiments (808 nm NIR diode laser)", "experimental": "(§1) Washed ICG-NACs (0.5 mL, ˜1×10^7 particles/mL, ˜1×10^9 ICG molecules/particles, 0.007 wt % ICG of suspension) were suspended in PBS solution and placed in the wells of a 24 well polystyrene culture dish. Control samples were a 0.007 wt % PBS solution of ICG and PBS solution. Containing 0.5 mL of aqueous suspension or solution, each well was irradiated with a continuous-wave near-infrared diode laser (Coherent FAP-System, 54 W, λ=808 nm, irradiance (Io)) 155 W/cm^2) for various time intervals. The laser beam impinged on the sample with a 6.66 mm diameter. During irradiation, the sample temperature was monitored with a K-type thermocouple (bead diameter) 0.003 in., Omega Engineering) located 1 mm outside the laser spot and recorded using LabVIEW data acquisition software (National Instruments, Austin, Tex.). For the SEM study, 5 identical batches were prepared and irradiated for various times. Each sample was then washed twice with Nanopure water and dried at room temperature for SEM imaging. Viability Assessment of Cells Exposed to ICG-NACs. […] Cell survival was quantified using the Live/Dead viability assay (Molecular Probes). Dead cells were differentiated from live cells through fluorescence microscopy, as the former emitted red fluorescence (from the ethidium homodimer-1 dye precursor) and the latter emitted green fluorescence (from the calcein acetoxymethyl ester dye precursor). […]"}, "[3]": {"system": "fibroblasts (rat maxillary incisor pulp cells (RPC-C2A))", "assay": "Viability assessment of cells exposed to ICG-NACs (Live/Dead viability assay)", "format": "cell-based", "experimental": "as §1"}, "[4]": {"conditions": "cited from earlier work"}, "animal subjects": {"system": "animal subjects", "conditions": "cited from earlier work"}, "[5]": {"conditions": "ICG concentration 0.001 mg/ml at 42° C.; cited from earlier work"}}, "data": [{"smiles": "CC1(C)C(/C=C/C=C/C=C/C=C2\\N(CCCCS(=O)(=O)O)c3ccc4ccccc4c3C2(C)C)=[N+](CCCCS(=O)(=O)[O-])c2ccc3ccccc3c21", "note": "[ICG, indocyanine green]", "values": [{"measurement": "ICG lost at the end of 8 hr", "setting": "[1]; PBS, dark, capsules ICG/amine ratio=0.04, free ICG ~0.04 mg/mL", "result": "~35", "unit": "%"}, {"measurement": "half-life", "setting": "[1]; ICG solution in PBS, free ICG in PBS, calculated", "result": 19, "unit": "h"}, {"measurement": "photothermal heating response", "setting": "[2]; constant 808 nm irradiation, compared with ICG-NACs", "result": "very similar heating curve"}, {"measurement": "irradiation/cooling cycles in which the target temperature was reached", "setting": "[2]; irradiated to ~51-54° C. (ICG-NACs 55° C.), cooled to 30° C., repeated, photodegradation stability", "result": 4, "unit": "cycles"}, {"measurement": "toxicity to fibroblast cells", "setting": "[3]", "result": "non-toxic"}, {"measurement": "half-life of rapid clearance from the circulatory system", "setting": "[4]; initial fast phase", "result": "3 to 4", "unit": "min"}, {"measurement": "half-life of much slower clearance rate", "setting": "[4]; second, slower phase", "result": "≥ 1", "unit": "h"}, {"measurement": "semilethal dose LD50", "setting": "animal subjects", "result": "50 to 80", "unit": "mg/kg"}, {"measurement": "published half-life of ICG", "setting": "[5]", "result": "~10", "unit": "h"}]}]}
